Data from patent US5684023A, “Benzofuranyl -and benzothienyloxazolidinones” (Bayer Aktiengesellschaft, priority 1994, dated 1997).
Converted amounts (≈) assume the structure as drawn.

What was measured:
Assay in all cases: MIC, serial dilution (Iso-Sensitest agar / microdilution in BH medium)
Format in all cases: cell-based
E. coli Neumann = conditions: Escherichia coli, 37° C., about 20 hours
Protocol: (§1) The minimum inhibitory concentrations (MIC) were determined by serial dilution methods on Iso-Sensitest agar (Oxoid). For each test substance, a number of agar plates were prepared which contained a decreasing concentration of the active compound on double dilution in each case. The agar plates were inoculated with a multipoint inoculator (Denley). For inoculation, overnight cultures of the bacilli were used which were previously diluted such that each inoculation point contained about 10^4 colony-forming particles. The inoculated agar plates were incubated at 37° C., and the bacterial growth was read off after about 20 hours. The MIC value (μg/ml) indicates the lowest active compound concentration at which no growth could be detected using the naked eye. The MIC values were determined in BH medium with the aid of the microdilution method. Each test substance was dissolved in the nutrient medium. A concentration series of the test substances was prepared in the microtiter plates by serial dilution. For inoculation, overnight cultures of the bacilli were used which had previously been diluted 1:250 in the nutrient medium. 100 μl each of inoculation solution were added to 100 μl of the diluted, active compound-containing nutrient solutions. The microtiter plates were incubated at 37° C. and read off after about 20 hours. The MIC value (μg/ml) indicates the lowest active compound concentration at which no growth could be detected.

Klebs. 57 USA = conditions: 37° C., about 20 hours
Protocol: as §1

Psdm. Bonn = conditions: 37° C., about 20 hours
Protocol: as §1

Staph 25701 = conditions: 37° C., about 20 hours
Protocol: as §1

Staph 9TV = conditions: 37° C., about 20 hours
Protocol: as §1

Staph. 133 = conditions: 37° C., about 20 hours
Protocol: as §1

Staph. 48N = conditions: 37° C., about 20 hours
Protocol: as §1

Structure (SMILES)	MIC (E. coli Neumann) [µg/mL]	MIC (Klebs. 57 USA) [µg/mL]	MIC (Psdm. Bonn) [µg/mL]	MIC (Staph 25701) [µg/mL]	MIC (Staph 9TV) [µg/mL]	MIC (Staph. 133) [µg/mL]	MIC (Staph. 48N) [µg/mL]
CC(=O)NC[C@H]1CN(c2ccc3sccc3c2)C(=O)O1 [Example 9, (5S)-3-[5-Benzo[b]thiophenyl]5-acetylamino-methyl-oxazolidin-2-one]	> 64	> 64	> 64	2 (≈ 6.89 µM)	2 (≈ 6.89 µM)	4 (≈ 13.8 µM)	4 (≈ 13.8 µM)
CC(=O)NC[C@H]1CN(c2ccc3oc(C)cc3c2)C(=O)O1 [Example 16]	> 64	> 64	> 64	1 (≈ 3.47 µM)	0.5 (≈ 1.73 µM)	1 (≈ 3.47 µM)	1 (≈ 3.47 µM)
CC(=O)NC[C@H]1CN(c2ccc3c(c2)C=CS3(=O)=O)C(=O)O1 [Example 27]	> 64	> 64	> 64	16 (≈ 49.6 µM)	8 (≈ 24.8 µM)	16 (≈ 49.6 µM)	16 (≈ 49.6 µM)
